Key:
Type in all cases: cell-based
[1] = tested on: T cells; test: ARM-BCMA CAR expression kinetics in vitro with or without AZT (FACS); conditions: 30 µM and 100 µM doses
Experimental: In contrast to TM which measures lentiviral integration of the CAR transgene after 8-9 days, in the ARM process, the lentiviral transgene may not be fully integrated and truly expressed within 24h post lentiviral addition, as lentiviral pseudotransduction could occur (Haas DL, et al., (2000) Mol Ther; 2(1):71-80; Galla M, et al., (2004) Mol Cell; 16(2):309-15). […] Flow cytometry (FACS) analyses were performed to detect CAR surface expression at 24 h, 48 h, 72 h, 96 h and 168 h post T cell activation and transduction with the lentiviral vector. In some cases, ARM-BCMA CAR and an aliquot of this product were frozen down immediately upon harvest for additional characterization in other assays.

[2] = tested on: T cells; test: T cell expansion with cytokines after TCR stimulation (cell surface staining)
Experimental: Previously frozen T cells were thawed and contacted with αCD3/αCD28 dynal beads (cell to bead ratio of 1 to 3) in the presence of indicated cytokines at day 0. From day 3, twice more T cell growth media (RPMI1640, 10% FBS, 2 mM L-glutamin, 100 µM non-essential amino acids, 1 mM sodium pyruvate, 10 mM Hepes, 55 µM β-mercaptoethanol, 10% FBS, and 100 U/ml of penicillin-streptomycin) was added to the plate with indicated cytokines (without cytokine, rhIL2 (50 IU/ml, Novartis), IL6 (10 ng/ml, R&D systems), IL7 (10 ng/ml, Peprotech), IL15 (10 ng/ml, Peprotech), and IL21 (10 ng/ml, Peprotech)) at day 3, 5, 6, 9, 12, 15, and 18.
Cells were harvested at indicated time points and then stained with live/dead dye (eFluro780, eBioscience), CD3 (BioLegend, clone#: OKT3), CD4 (BioLegend, clone#: OKT4), CD8 (BD Bioscience, clone#: RPA-T8), CD45RO (BioLegend, clone#: UCHL1), CCR7 (BioLegend, clone#: G043H7), CD27 (BD Horizon, clone#: L128), CD127 (BioLegend, clone#: A019D5), CD57 (BioLegend, clone#: HCD57), CD126 (BioLegend, clon#: UV4), and CD130 (R&D Systems, clone#: 28126) antibodies. The cells were acquired by FACS Fortessa and then FlowJo program was used for data analysis.

[3] = tested on: T cells; test: Cytokine process: T cell differentiation status and CAR transduction by flow cytometry; conditions: purified T cells incubated with cytokine, no other activation stimulus
Experimental: The cells were immunophenotyped for T cell differentiation status and transduction of the CAR was assessed using flow cytometry. The cells were washed, viability dye was added followed by the antibody cocktail (Table 20), and the plates were incubated for 20 minutes at room temperature. After the incubation, the cells were washed twice and fixed prior to being analyzed on the BD fortessa.

Cc1cn([C@H]2C[C@H](N=[N+]=[N-])[C@@H](CO)O2)c(=O)[nH]c1=O [AZT, 3′-azido-3′-deoxythymidine]
inhibition of CAR expression [1]: effectively inhibit CAR expression

IL15: cytokine present during activation of T cells with αCD3αCD28 beads
expansion of IL6Rβ expressing cells ([2]; αCD3/αCD28 beads plus cytokine): enhanced expansion of IL6Rβ expressing cells | T cell expansion ([2]; αCD3/αCD28 beads plus indicated cytokine): enhanced T cell expansion, with IL15 showing the greatest enhancement

IL-15: cytokine used in T cell culture
maintenance of self-renewing T cells (CD45RO-CCR7+) [3]: maintained self-renewing T cells in vitro

Reference: patent US20230256017A1, “METHODS OF MAKING CHIMERIC ANTIGEN RECEPTOR-EXPRESSING CELLS” (Novartis AG, priority 2020, published 2023)
